From BindingDB's records for doi:10.1021/jm2006222

Target: 3-phosphoinositide-dependent protein kinase 1 (Homo sapiens) (UniProt O15530)
Experiment: Inhibition of recombinant PDK1

CCN1CCN(c2ccc(Nc3cc(N(C)C(=O)Nc4c(Cl)c(OC)cc(OC)c4Cl)ncn3)cc2)CC1
IC50: > 10 µM
